Patent US9518065B2, “IRAK inhibitors and uses thereof” (NIMBUS IRIS, INC., priority 2013, dated 2016)
Like-named read-outs stand apart in the source and are kept apart here.

Columns and labels:
IRAK4 = biological target: T1, IRAK4 (Homo sapiens, UniProt Q9NWZ3); assay: IRAK-4 activity inhibition assay (Caliper); format: biochemical; details: 3.5 nM IRAK4, 37 μM ATP, 1.5 μM Peptide 8
T1 construct: purchased CARNA Bioscience 09-145
T1 sequence (Q9NWZ3 1-460): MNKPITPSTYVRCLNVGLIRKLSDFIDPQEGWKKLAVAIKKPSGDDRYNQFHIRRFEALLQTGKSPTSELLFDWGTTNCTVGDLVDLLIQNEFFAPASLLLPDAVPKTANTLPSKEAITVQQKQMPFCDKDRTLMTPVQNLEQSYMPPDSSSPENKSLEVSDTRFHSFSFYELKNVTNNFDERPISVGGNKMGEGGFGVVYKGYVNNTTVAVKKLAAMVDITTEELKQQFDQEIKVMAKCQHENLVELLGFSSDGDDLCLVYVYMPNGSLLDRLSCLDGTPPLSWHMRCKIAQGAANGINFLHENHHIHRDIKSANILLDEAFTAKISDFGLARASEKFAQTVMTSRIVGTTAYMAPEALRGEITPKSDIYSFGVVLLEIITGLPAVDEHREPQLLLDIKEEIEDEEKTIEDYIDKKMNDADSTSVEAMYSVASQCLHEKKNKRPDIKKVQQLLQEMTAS
Method: A 1× kinase base buffer was prepared from 50 mM HEPES, pH 7.5 and 0.0015% Brij-35. A stop buffer was prepared from 100 mM HEPES, pH 7.5, 0.015% Brij-35, 0.2% Coating Reagent #3, and 50 mM EDTA.
Test compound was diluted to 50× of the final desired highest inhibitor concentration in reaction by 100% DMSO. 100 ul of this compound dilution was transferred to a well in a 96-well plate. For example, if desired highest inhibitor concentration in IC50 determination is 100 uM, then prepare 5000 uM of compound DMSO solution in this step.
Test compound was serially diluted by transferring 30 μl to 60 μl of 100% DMSO in the next well and so forth for a total of 10 concentrations. 100 μl of 100% DMSO was added to two empty wells for no compound control and no enzyme control in the same 96-well plate.
A new 96-well plate was marked as intermediate plate. 5 μl of compound serial dilution was transferred from source plate to the corresponding wells of the intermediate plate. 45 μl of 1× kinase base buffer (KB buffer) was added to each well of the intermediate plate. The intermediate plate was placed for 10 min on a shaker.
5 μl of each well was transferred from the 96-well intermediate plate to a 384-well plate in duplicates. For example, A1 of the 96-well plate is transferred to A1 and A2 of the 384-well plate. A2 of the 96-well plate is transferred to A3 and A4 of the 384-well plate, and so on.
IRAK4 and DTT in 1× kinase base buffer was added. The 2.5× enzyme mix contained 8.8 nM IRAK4 and 5 mM DTT.
Peptide 8, ATP, MgCl2 and MnCl2 were added in the 1× kinase base buffer. The 2.5× peptide mix contained 3.75 μM peptide 8, 92.5 μM ATP, 12.5 mM MgCl2 and 2.5 mM MnCl2.
Assay plate already contained 5 μl of compound in 10% DMSO. Added 10 μl of 2.5× enzyme solution to each well of the 384-well assay plate, except no enzyme control wells. The final concentration of IRAK4 in reaction was 3.5 nM. Added 10 μl of 1× kinase base buffer to no enzyme control wells in the assay plate. Incubated at room temperature for 10 min.
Added 10 μl of 2.5× peptide solution to each well of the 384-well assay plate. The final concentration of Peptide 8 and ATP was 1.5 μM and 37 μM, respectively. Incubated at 28° C. for 40 minutes. Added 25 μl of stop buffer to stop reaction. Collected data on Caliper.
Copied conversion % data from Caliper program. Converted conversion % values to percent inhibition values. Percent inhibition=(max-conversion %)/(max-min)*100, where “max” means the conversion % of DMSO control and “min” means the conversion % of no enzyme control.
The compound numbers correspond to the compound numbers in Table 1. Compounds having an activity designated as “A” provided an IC50≦1 μM; compounds having an activity designated as “B” provided an IC50 of 1-5 μM; compounds having an activity designated as “C” provided an IC50 of ≧5 μM. “NA” stands for “not assayed.”

[1] = tested on: TNFα and IL8 production in THP-1 cells; assay: LPS induced cytokine (TNFα and IL8) production assay in THP-1 cells; format: cell-based; details: Homo sapiens, 300 ng/mL LPS
Method: Provided compounds were also assayed in an LPS (Lipopolysacharide) or R848 (TLR-7 agonist) induced cytokine (TNFα and IL8) production assay in THP-1 cells, human white blood cells (hWBC), and whole blood. The exemplary protocol for this assay in THP-1 cells was as follows below.
THP-1 cells from ATCC (TIB-202) were cultured in RPMI Medium 1640 (Invitrogen, Cat No. A10491-01), 10% fetal bovine serum (Invitrogen, Cat No. 10099141, Lot No. 8172882) containing 100 U/mL Penicillin, 100 μg/mL streptomycin (Invitrogen, Cat No. 15140-122), and 50 uM 2-Mercaptoethanol (Invitrogen, Cat No. 21985023). LPS-EK ultra pure (Invivogen, Cat No. tlrl-peklps) was used to induce IL8 and TNFα production, that was detected in the cell culture supernatant by IL8 HTRF kit (Cisbio, Cat No. 62IL8PEB) and TNFα HTRF kit (Cisbio, Cat No. 62TNFPEB), as per manufacturer instructions. Cells were cultured in 96 well assay plates at 100,000 cells per well, and compounds diluted in final 0.3% DMSO were pre-incubated with cells for 1 hour prior to stimulation with 300 ng/mL LPS. Cytokine production in cell supernatant was measured at 5 hours for TNFα and IL8 production, and for 16 hours for IL8 production and assessment of cell viability.
The compound numbers correspond to the compound numbers in Table 1. […] “NA” stands for “not assayed.”

[2] = 5 hours, read-out: TNFα production IC50
[3] = 16 hours, read-out: IL8 (16 h) production IC50

Structure (SMILES)	IC50 (IRAK4) [µM]	IC50 [1, 2] [µM]	IC50 [1, 3] [µM]
CCc1nc2c(N[C@H]3CC[C@H](N4CCOCC4)CC3)nc(Nc3cnn(C(C)C)c3)nc2s1 [Compound I-8, 2-ethyl-N5-(1-isopropyl-1H-pyrazol-4-yl)-N7-((1r,4r)-4-morpholinocyclohexyl)thiazolo[5,4-d]pyrimidine-5,7-diamine]	≤ 1	≤ 0.25	≤ 0.25
CCc1nc2c(N[C@H]3CC[C@H](N4CCOCC4)CC3)nc(Nc3cnn(C4CCS(=O)(=O)CC4)c3)nc2s1 [Compound I-10, 4-(4-((2-ethyl-7-(((1r,4r)-4-morpholino-cyclohexyl)amino)-thiazolo[5,4-d]pyrimidin-5-yl)amino)-1H-pyrazol-1-yl)tetrahydro-2H-thiopyran 1,1-dioxide]	≤ 1	≤ 0.25	≤ 0.25
CCc1nc2c(N[C@H]3CC[C@@H](N4CCC(F)(F)CC4)CC3)nc(Nc3cnn(C)c3)nc2s1 [Compound I-12, N7-((1s,4s)-4-(4,4-difluoropiperidin-1-yl)cyclohexyl)-2-ethyl-N5-(1-methyl-4H-pyrazol-4-yl)thiazolo[5,4-d]pyrimidine-5,7-diamine]	≤ 1	0.25 to 0.5	0.25 to 0.5
CCc1nc2c(N[C@H]3CC[C@H](N4CCC5(CC4)COC5)CC3)nc(Nc3cnn(C)c3)nc2s1 [Compound I-13, N7-((1r,4r)-4-(2-oxa-7-azaspiro[3.5]nonan-7-yl)cyclohexyl)-2-ethyl-N5-(1-methyl-1H-pyrazol-4-yl)thiazolo[5,4-d]pyrimidine-5,7-diamine]	≤ 1	≤ 0.25	≤ 0.25
CCc1nc2c(N[C@H]3CC[C@H](N4CCC5(CC4)COC5)CC3)nc(Nc3cnn(C4CCOCC4)c3)nc2s1 [Compound I-14, N7-((1r,4r)-4-(2-oxa-7-azaspiro[3.5]nonan-7-yl)cyclohexyl)-2-ethyl-N5-(1-(tetrahydro-2H-pyran-4-yl)-1H-pyrazol-4-yl)thiazolo[5,4-d]pyrimidine-5,7-diamine]	≤ 1	≤ 0.25	≤ 0.25
CCc1nc2c(N[C@H]3CC[C@H](N4CCC(O)CC4)CC3)nc(Nc3cnn(C4CCOCC4)c3)nc2s1 [Compound I-16]	≤ 1	≤ 0.25	–
CCc1nc2c(N[C@H]3CC[C@H](N4CCC(O)CC4)CC3)nc(Nc3cnn(C)c3)nc2s1 [Compound I-17, 1-((1r,4r)-4-((2-ethyl-5-((1-methyl-1H-pyrazol-4-yl)amino)-thiazolo[5,4-d]pyrimidin-7-yl)amino)cyclohexyl)piperidin-4-ol]	≤ 1	≤ 0.25	–
CCc1nc2c(N[C@H]3CC[C@H](N4CCOCC4)CC3)nc(Nc3cnn(CC4CCOCC4)c3)nc2s1 [Compound I-18, 2-ethyl-N7-((1r,4r)-4-morpholinocyclohexyl)-N5-(1-((tetrahydro-2H-pyran-4-yl)methyl)-1H-pyrazol-4-yl)thiazolo[5,4-d]pyrimidine-5,7-diamine]	≤ 1	≤ 0.25	≤ 0.25
CCc1nc2c(N[C@H]3CC[C@H](N4CCC(F)(F)CC4)CC3)nc(Nc3cnn(C4CCOCC4)c3)nc2s1 [Compound I-19, 2-ethyl-5-N-[1-(oxan-4-yl)-1H-pyrazol-4-yl]-7-N-[trans-4-(4,4-difluoropiperidin-1-yl)cyclohexyl]-[1,3]thiazolo[5,4-d]pyrimidine-5,7-diamine]	≤ 1	≤ 0.25	–
CCc1nc2c(N[C@H]3CC[C@H](N4CCC5(CC4)CC5)CC3)nc(Nc3cnn(C)c3)nc2s1 [Compound I-21, N7((1r,4r)-4-(6-azaspiro[2.5]octan-6-yl)cyclohexyl)-2-ethyl-N5-(1-methyl-1H-pyrazol-4-yl)thiazolo[5,4-d]pyrimidine-5,7-diamine]	≤ 1	≤ 0.25	≤ 0.25
CCc1nc2c(N[C@H]3CC[C@H](N4CCOCC4)CC3)nc(Nc3cnn(CC)c3)nc2s1 [Compound I-22, 2-ethyl-N5-(1-ethyl-1H-pyrazol-4-yl)-N7-((1r,4r)-4-morpholino-cyclohexyl)thiazolo[5,4-d]pyrimidine-5,7-diamine]	≤ 1	0.25 to 0.5	≤ 0.25
